{
  "source": "patent US8835415B2",
  "about": "“Standardized composition, method of manufacture and use in the resolution of RNA virus infection” (priority 2009, dated 2014)",
  "key": {"HIV-1 (X4 tropic virus)": {"test_system": "HIV-1 (X4 tropic virus)", "experiment": "microbe, parasite or virus in culture", "assay_type": "cell-based", "conditions": "CXCR4 trophic virus, PBMC"}, "HIV-1 (R5 tropic virus)": {"test_system": "HIV-1 (R5 tropic virus)", "assay_type": "cell-based", "conditions": "CCR5 trophic virus, PBMC"}, "[1]": {"test_system": "Sheep Red Blood Cells (SRBCs)", "assay_type": "in vivo, Swiss albino mice", "conditions": "Cyclophosphamide 25 mg/kg p.o alone", "description": "Swiss albino mice of either sex were divided into 5 groups with six animals per group based on the treatment they received.\nOn Day 0, all five groups were sensitized with Sheep Red Blood Cells (SRBCs) containing 1×10^8 cells in normal saline. […] On Day 7, blood samples were collected from each mouse in the five groups by retro orbital puncture for the determination of primary antibody titre. Subsequently on day 7, after the blood withdrawal, the mice were challenged with 0.1 ml of SRBCs into the foot pad. On Day 14, blood samples were collected from each mouse by retro orbital puncture for the determination of secondary antibody titre."}, "[2]": {"test_system": "H1N1 virus, Sensitive strain (676)", "experiment": "Plaque reduction assay in MDCK cells, H1N1 sensitive strain", "assay_type": "cell-based", "conditions": "Influenza A virus, Tamiflu"}},
  "data": [
    {"smiles": "c1cc(CN2CCCNCCNCCCNCC2)ccc1CN1CCCNCCNCCCNCC1", "note": "[AMD3100]", "values": [
      {"measurement": "EC50", "setting": "HIV-1 (X4 tropic virus); Human immunodeficiency virus 1", "value": 2.05, "unit": "nM"},
      {"measurement": "inhibitory activity (in words)", "setting": "HIV-1 (R5 tropic virus)", "value": "only against CXCR4 trophic virus"}
    ]},
    {"smiles": "Cc1cn([C@H]2C[C@H](N=[N+]=[N-])[C@@H](CO)O2)c(=O)[nH]c1=O", "note": "[AZT]", "values": [
      {"measurement": "inhibitory activity (in words)", "setting": "HIV-1 (X4 tropic virus)", "value": "exhibited inhibitory activity"},
      {"measurement": "inhibitory activity (in words)", "setting": "HIV-1 (R5 tropic virus)", "value": "exhibited inhibitory activity"}
    ]},
    {"smiles": "O=P1(N(CCCl)CCCl)NCCCO1", "note": "(stereo not drawn) [Cyclophosphamide]", "values": [
      {"measurement": "PRIMARY HA TITRE ON DAY 7", "setting": "[1]", "value": 0.33},
      {"measurement": "SECONDARY HA TITRE ON DAY 14", "setting": "[1]", "value": 6.67}
    ]},
    {"smiles": "Cc1ccc(-c2ccc3c(c2)C=C(C(=O)Nc2ccc(C[N+](C)(C)C4CCOCC4)cc2)CCC3)cc1.[Cl-]", "note": "[Tak-779]", "values": [
      {"measurement": "inhibitory activity (in words)", "setting": "HIV-1 (X4 tropic virus)", "value": "only against CCR5 trophic virus"},
      {"measurement": "EC50", "setting": "HIV-1 (R5 tropic virus)", "value": 0.56, "unit": "nM"}
    ]},
    {"smiles": "CCOC(=O)C1=C[C@@H](OC(CC)CC)[C@H](NC(C)=O)[C@@H](N)C1", "note": "[Tamiflu, Oseltamivir]", "values": [
      {"measurement": "EC50", "setting": "[2]", "value": 4.5, "unit": "nM"}
    ]}
  ]
}
